Test results reported in patent US11161864B2, “Sting agonists” (Venenum Biodesign, LLC, priority 2018, dated 2021).
pEC50, pIC50: −log10 of the molar value.

How the values were obtained:
MC-38 tumor [1] = assay: MC-38 tumor bearing mice treated with Example 1C and anti-PD-1
human STING (R232H) = human STING (R232H) (Homo sapiens, UniProt Q86WV6); assay: Thermal shift binding assay, human STING (R232H); conditions: 100 μM compound, 5 μM STING protein; read-out: Human STING(R232H) Tm Shift
mouse STING = mouse STING (Mus musculus (Mouse), UniProt Q3TBT3); assay: Thermal shift binding assay, mouse STING; conditions: 100 μM compound, 5 μM STING protein; read-out: Mouse STING Tm Shift
[2] = test system: STING pathway genes, THP1 Dual (HAQ) human cells; assay: qRT-PCR assay, THP1 Dual (HAQ) human cells; type: cell-based
MC-38 tumor [3] = assay: MC-38 tumor bearing mice treated with Example 1C and anti-PD-1, anti-PD-L1, anti-CTLA4; type: in vivo, C57BL/6J mice; conditions: for #Tumor Free Mice after Treatment: 10 animals/group
Source text: The animals were terminated when the tumor size reached 2,000 mm^3.

[4] = test system: STING signaling, RAW-Dual reporter cells; assay: Measurement of mouse IFN-β (ELISA); type: cell-based; conditions: Mus musculus, […]
Source text: Mouse Interferon-β (IFN-β) in the supernatants of murine macrophages treated with STING activators was quantified using sandwich enzyme linked immunosorbent assay (ELISA). Briefly, IFN-β binds to plates coated with antibody and detection is accomplished using a detection antibody followed by streptavidin conjugated to horseradish peroxidase. Tetramethyl-benzidine is used as the substrate in this kit (PBL Assay Science). […] In this invention, mouse IFN-β ELISA is used to determine the potency of compound on STING pathway activation in mouse macrophages.
Murine macrophage derived cell line RAW-Dual reporter cells (Invivogen) were used to measure the IFN-β produced by STING signaling activation. Briefly, 20,000 cells in 27 μL were seeded into tissue culture treated 384-well plate that contained 3 μL of test compound. Cells were incubated at 37° C., in a 5% CO2 incubator for 5.5 hours. Supernatants from treated cells were diluted 20-fold and prior to measurement of IFN-β levels using ELISA kit (PBL Assay Science). 100 μL of diluted sample was added to ELISA plate. Plates were incubated at RT for 1 hour with shaking at 650 rpm. Post incubation, samples were aspirated from wells and the wells were washed 4 times. Diluted antibody (50 μL) was added to plates and incubated at RT for 30 minutes with shaking, followed by aspiration of antibody and 4× washes. Diluted HRP (horseradish peroxidase) solution (50 μL) was added and incubated for 10 minutes, followed by aspiration of the solution and 4× wash steps. After the final wash steps, plates were incubated with 100 μL of TMB (tetramethyl benzidine) substrate for 10 minutes, followed by addition of 100 μL of stop solution and plates were read on Envision plate reader for optical density.

CT-26 tumor = CT-26 tumor bearing mice, intra-tumoral treatment and re-challenge; conditions: for Number of surviving mice: 50 μg intra-tumoral Days 0, 3, 7; for Number of surviving mice in the re-challenge: mice with complete regression after 50 μg, re-challenged with CT-26, no further treatment
[5] = biological target: human STING (G230A-R293Q) (Homo sapiens (Human), UniProt Q86WV6, G230A/H232R/R293Q); assay: Thermal shift binding assay, human STING (AQ); conditions: 100 μM compound, 5 μM STING protein; read-out: Human STING(AQ) Tm Shift
human STING (WT) = human STING (WT) (Homo sapiens (Human), UniProt Q86WV6, H232R); assay: Thermal shift binding assay, human STING (WT); conditions: 100 μM compound, 5 μM STING protein; read-out: Human STING(WT) Tm Shift
MC-38 tumor [6] = assay: Treatment of MC-38 tumors with Example 1C and radiotherapy; type: in vivo, C57BL/6J mice; conditions: for #Tumor Free Mice after Treatment: 10 animals/group
Source text: Tumors grew for 7 days to an average size of 100 mm^3. […] On Days −2, −1 and 0 received 5 Gy of radiation targeted to the tumor using the Small Animal Radiation Research Platform (SARRP) manufactured by Xstrahl Inc. Radiotherapy treatments were given according to the outline in Table 18. […] Radiotherapy treatments were given according to the outline in Table 19.

[7] = biological target: AQ variant of truncated human STING protein, amino acids 155-379 (Homo sapiens (Human), UniProt Q86WV6, G230A/H232R/R293Q); assay: Human AQ STING [3H] 2′,3′-cGAMP scintillation proximity competition binding assay; conditions: read-out: Human AQ Binding IC50
Source text: (§1) A human STING [^3H] 2′,3′-cGAMP scintillation proximity competition binding assay was utilized to detect binding of compounds to STING protein. […] The protein encoding plasmid contained a HIS tag, followed by an Avi tag and then a SUMO tag, which were followed by the STING coding sequence within the pET-28a (+) vector. The plasmid was transfected into a BL21 (DE3)/BirA E. coli co-expression strain. Protein was purified from the bacterial lysate using a cobalt-affinity column. The purified protein was dialyzed against PBS and then 20% glycerol was added prior to storage at −80° C.
(§2) 2′,3′-cGAMP in assay buffer (50 mM Tris pH 7.5, 100 mM NaCl, 0.1% Fatty Acid Free BSA). Test compounds (2.5 μL) were added to the plate first followed by a 25 μL mixture of STING protein, streptavidin PVT SPA beads (Perkin Elmer) and 10 μL [^3H] 2′,3′-cGAMP. Plates were incubated at room temperature for 18 hrs and read on a Wallac MicroBeta TriLux (Perkin Elmer).

[8] = test system: STING pathway, THP1 cells; assay: Human IFN-α/β induction assay (THP1 supernatants on HEK-Blue IFN-α/β reporter cells); type: cell-based; conditions: THP1 cells 5 hrs, HEK-Blue reporter cells 24 hrs
Protocol: Genetically engineered human type-1 Interferons (IFN-α/β) sensor cells-HEK Blue™ IFNα/β cells (Invivogen) were employed to measure the type-1 IFNs produced by THP1 cells that are treated with activators of STING. The human embryonic (HEK) Blue™ cells are specially designed to monitor the activation of JAK/STAT pathway induced by type 1 IFNs. Briefly, THP1 cells are treated with compounds for 5 hrs. In the second step, supernatants of THP1 cells are transferred to HEK Blue™ IFNα/β reporter cells and incubated for 24 hrs. The secreted embryonic alkaline phosphatase (SEAP) activity in the supernatants of HEK blue IFNα/3 reporter cells is measured and used to determine the quantities of IFNs.
HEK-Blue IFN-α/β reporter cells (Invivogen) were used to measure the secretion of IFN-α/β into culture supernatants of THP1 cells following STING pathway activation. In the first step, THP1 cells were cultured in presence of STING activators for 5 hrs at 37° C., in a 5% CO2 tissue culture incubator, which facilitates the release of IFN-α/β into the supernatants. In the second step, cell supernatants from THP1 cells were transferred to HEK-Blue IFN-α/β reporter cells and incubated at 37° C., in a 5% CO2 incubator for 24 hrs. HEK-Blue IFN-α/β reporter cells are specifically designed to monitor the activation of JAK-STAT pathway activation by type 1 IFNs. These cells express a secreted embryonic alkaline phosphatase (SEAP) reporter gene under the control of ISG54 promoter, which is a well-known interferon stimulatory gene activated by type 1 IFNs. Upon IFN-α/β stimulation, HEK-Blue IFN-α/β reporter cells activate the JAK-STAT pathway and subsequently the expression of the reporter gene. SEAP which is secreted in the supernatant is easily detectable using alkaline phosphatase detection medium (Quanti-Blue reagent from Invivogen).
These assays were run by adding 2 μL of compound stock solution to tissue culture treated 384-well plates with electronic pipettes. Compounds were diluted in autoclaved sterile water, initially spotted on the intermediate dilution plate and then to the assay plate. […]

[9] = biological target: wild-type (WT) truncated human STING protein, amino acids 155-379 (Homo sapiens (Human), UniProt Q86WV6, H232R); assay: Human WT STING [3H] 2′,3′-cGAMP scintillation proximity competition binding assay; conditions: read-out: Human WT Binding IC50
Source text: as §1, §2

[10] = CTLA4 + PD-L1 (5 + 5 mg/kg) + 5 μg Example 1C
[11] = Iso Ab (10 mg/kg) + 5 μg Example 1C
[12] = PD1 + PD-L1 (5 + 5 mg/kg) + 5 μg Example 1C
[13] = Example 1C 5 μg IT Day 0, 3, 7, 14, no RT
[14] = RT (5 Gy) Day −1, 0 / Example 1C 5 μg IT Day 0, 3, 7, 14
[15] = RT (5 Gy) Day −2, −1, 0 / Example 1C 5 μg IT Day 0, 3, 7, 14

Chain of mouse STING (Q3TBT3 154-378): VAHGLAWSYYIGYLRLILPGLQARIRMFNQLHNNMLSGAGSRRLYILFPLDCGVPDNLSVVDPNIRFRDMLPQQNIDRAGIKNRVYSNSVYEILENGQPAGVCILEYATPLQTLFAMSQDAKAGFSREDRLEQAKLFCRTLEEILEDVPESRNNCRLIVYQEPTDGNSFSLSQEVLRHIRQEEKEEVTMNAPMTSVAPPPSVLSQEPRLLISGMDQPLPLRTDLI
Chain of AQ variant of truncated human STING protein, amino acids 155-379 (Q86WV6 155-379 G230A/H232R/R293Q): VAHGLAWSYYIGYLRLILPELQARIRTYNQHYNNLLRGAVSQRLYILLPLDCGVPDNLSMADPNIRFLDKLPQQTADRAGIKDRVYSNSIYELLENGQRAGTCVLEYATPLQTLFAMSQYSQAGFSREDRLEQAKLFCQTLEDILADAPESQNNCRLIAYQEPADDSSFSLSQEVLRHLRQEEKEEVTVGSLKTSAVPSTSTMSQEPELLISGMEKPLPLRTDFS
Chain of human STING (G230A-R293Q) (Q86WV6 155-379 G230A/H232R/R293Q): as above
Chain of wild-type (WT) truncated human STING protein, amino acids 155-379 (Q86WV6 155-379 H232R): as the sequence (Q86WV6 155-379 G230A/H232R/R293Q) above, with A76G, Q139R counted along it
Chain of human STING (WT) (Q86WV6 155-379 H232R): as the sequence (Q86WV6 155-379 G230A/H232R/R293Q) above, with A76G, Q139R counted along it

Structure (SMILES): Nc1nc2c(ncn2[C@@H]2O[C@@H]3COP(=O)(S)OCCn4c(nc5cncnc54)COP(=O)(S)O[C@@H]2[C@@H]3F)c(=O)[nH]1 (single isomer, unassigned) [Example 1C]
- Number of surviving mice (MC-38 tumor [1]; 5 μg Example 1C + 10 mg/kg Anti-PD-1, Day 0): 10/10
- Number of surviving mice (MC-38 tumor [1]; 5 μg Example 1C + 10 mg/kg Anti-PD-1, Day 3): 10/10
- Number of surviving mice (MC-38 tumor [1]; 5 μg Example 1C + 10 mg/kg Anti-PD-1, Day 6): 10/10
- Number of surviving mice (MC-38 tumor [1]; 5 μg Example 1C + 10 mg/kg Anti-PD-1, Day 10): 10/10
- Number of surviving mice (MC-38 tumor [1]; 5 μg Example 1C + 10 mg/kg Anti-PD-1, Day 14): 10/10
- Number of surviving mice (MC-38 tumor [1]; 5 μg Example 1C + 10 mg/kg Anti-PD-1, Day 17): 10/10
- Number of surviving mice (MC-38 tumor [1]; 5 μg Example 1C + 10 mg/kg Anti-PD-1, Day 21): 10/10
- Number of surviving mice (MC-38 tumor [1]; 5 μg Example 1C + 10 mg/kg Anti-PD-1, Day 24): 10/10
- Number of surviving mice (MC-38 tumor [1]; 5 μg Example 1C + 10 mg/kg Anti-PD-1, Day 27): 9/10
- Number of surviving mice (MC-38 tumor [1]; 5 μg Example 1C + 10 mg/kg Anti-PD-1, Day 30): 8/10
- Number of surviving mice (MC-38 tumor [1]; 5 μg Example 1C + 10 mg/kg Anti-PD-1, Day 34): 7/10
- Number of surviving mice (MC-38 tumor [1]; 5 μg Example 1C intra-tumoral Days 0, 3, 7, Day 0): 10/10
- Number of surviving mice (MC-38 tumor [1]; 5 μg Example 1C intra-tumoral Days 0, 3, 7, Day 3): 10/10
- Number of surviving mice (MC-38 tumor [1]; 5 μg Example 1C intra-tumoral Days 0, 3, 7, Day 6): 10/10
- Number of surviving mice (MC-38 tumor [1]; 5 μg Example 1C intra-tumoral Days 0, 3, 7, Day 10): 10/10
- Number of surviving mice (MC-38 tumor [1]; 5 μg Example 1C intra-tumoral Days 0, 3, 7, Day 14): 10/10
- Number of surviving mice (MC-38 tumor [1]; 5 μg Example 1C intra-tumoral Days 0, 3, 7, Day 17): 10/10
- Number of surviving mice (MC-38 tumor [1]; 5 μg Example 1C intra-tumoral Days 0, 3, 7, Day 21): 10/10
- Number of surviving mice (MC-38 tumor [1]; 5 μg Example 1C intra-tumoral Days 0, 3, 7, Day 24): 10/10
- Number of surviving mice (MC-38 tumor [1]; 5 μg Example 1C intra-tumoral Days 0, 3, 7, Day 27): 7/10
- Number of surviving mice (MC-38 tumor [1]; 5 μg Example 1C intra-tumoral Days 0, 3, 7, Day 30): 3/10
- Number of surviving mice (MC-38 tumor [1]; 5 μg Example 1C intra-tumoral Days 0, 3, 7, Day 34): 1/10
- ΔTm at 100 µM (human STING (R232H)): 5 to 10 °C
- ΔTm at 100 µM (mouse STING): > 20 °C
- increase in CXCL10 [2]: 1000 fold
- increase in IL-6 compared to Control [2]: 300 fold
- increase of IFN-β mRNA compared to ADU-S100 [2]: 30 fold
- increase of IFN-β mRNA compared to Control [2]: 4000 fold
- #Tumor Free Mice after Re-challenge (MC-38 tumor [3]; [10]): 6/6
- #Tumor Free Mice after Treatment (MC-38 tumor [3]; [10]): 6/6
- #Tumor Free Mice after Re-challenge (MC-38 tumor [3]; [11]): 1
- #Tumor Free Mice after Treatment (MC-38 tumor [3]; [11]): 2
- #Tumor Free Mice after Re-challenge (MC-38 tumor [3]; [12]): 5
- #Tumor Free Mice after Treatment (MC-38 tumor [3]; [12]): 8
- pEC50 [4]: > 5.30
- Number of surviving mice (CT-26 tumor; Day 0): 10/10
- Number of surviving mice (CT-26 tumor; Day 3): 10/10
- Number of surviving mice (CT-26 tumor; Day 7): 10/10
- Number of surviving mice (CT-26 tumor; Day 10): 10/10
- Number of surviving mice (CT-26 tumor; Day 14): 10/10
- Number of surviving mice (CT-26 tumor; Day 17): 10/10
- Number of surviving mice (CT-26 tumor; Day 20): 10/10
- Number of surviving mice (CT-26 tumor; Day 23): 10/10
- Number of surviving mice (CT-26 tumor; Day 35): 8/10
- Number of surviving mice in the re-challenge (CT-26 tumor; Rechallenge Day 0): 8/8
- Number of surviving mice in the re-challenge (CT-26 tumor; Rechallenge Day 7): 8/8
- Number of surviving mice in the re-challenge (CT-26 tumor; Rechallenge Day 11): 8/8
- Number of surviving mice in the re-challenge (CT-26 tumor; Rechallenge Day 14): 8/8
- Number of surviving mice in the re-challenge (CT-26 tumor; Rechallenge Day 17): 8/8
- Number of surviving mice in the re-challenge (CT-26 tumor; Rechallenge Day 20): 8/8
- Number of surviving mice in the re-challenge (CT-26 tumor; Rechallenge Day 24): 8/8
- Number of surviving mice in the re-challenge (CT-26 tumor; Rechallenge Day 27): 8/8
- Number of surviving mice in the re-challenge (CT-26 tumor; Rechallenge Day 30): 8/8
- Number of surviving mice in the re-challenge (CT-26 tumor; Rechallenge Day 33): 8/8
- ΔTm at 100 µM [5]: > 20 °C
- ΔTm at 100 µM (human STING (WT)): 10.1 to 20 °C
- #Tumor Free Mice after Re-challenge (MC-38 tumor [6]; [13]): 0/0
- #Tumor Free Mice after Treatment (MC-38 tumor [6]; [13]): 0/0
- #Tumor Free Mice after Re-challenge (MC-38 tumor [6]; [14]): 3
- #Tumor Free Mice after Treatment (MC-38 tumor [6]; [14]): 4
- #Tumor Free Mice after Re-challenge (MC-38 tumor [6]; [15]): 7
- #Tumor Free Mice after Treatment (MC-38 tumor [6]; [15]): 8
- pIC50 [7]: > 6.00
- pEC50 [8]: > 5.30
- pIC50 [9]: > 6.00
